Reference: US11884649B2, “IRE1α inhibitors and uses thereof” (The Regents of the University of California, priority 2020, dated 2024)

Columns and labels:
XBP1 mRNA splicing = XBP1 mRNA splicing in INS-1 cells conditionally overexpressing IRE1α (Dox); format: cell-based, rat; settings: 3, 10 μM for 1 hour, then Dox (1 μg/mL) for 4 hours
Procedure: (§1) RNA Isolation, Quantitative Real-Time PCR, and Primers
(§2) INS-1 or isogenic IRE1α-overexpressing INS-1 cells were plated onto Poly-D-Lysine coated tissue culture plate and grown for 48 hrs. Inhibitors or DMSO were added to the media and incubated for 1 hour at 37° C. with 5% CO2 prior to addition of ER stress agents or Dox as indicated. RNA was isolated from whole cells using either QIAGEN RNeasy Mini kits or Trizol (Invitrogen) and reverse transcribed as above to obtain total cDNA. Then, XBP-1 primers were used to amplify an XBP-1 amplicon spanning the 26 nt intron from the cDNA samples in a regular 3-step PCR. Thermal cycles were: 5 min at 95° C., 30 cycles of 30 s at 95° C., 30 s at 60° C., and 1 min at 72° C., followed by 72° C. for 15 min, and hold at 4° C. Primers used for XBP-1 mRNA splicing were as follows: sense primer XBP1.3 S (5′ […]-3′ (SEQ ID NO:2)) and antisense primer XBP1.2AS (5′-[…]-3′ (SEQ ID NO:3)). PCR fragments were then digested by PstI, resolved on 3% agarose gels, stained with EtBr and quantified by densitometry using ImageJ (NIH). For standard mRNA detection, generally […] total RNA was reverse transcribed using the QuantiTect Reverse Transcription Kit (QIAGEN). For qPCR, we used SYBR green (QIAGEN) and StepOnePlus Real-Time PCR System (Applied Biosystems). Thermal cycles were: 5 min at 95° C., 40 cycles of 15 sec at 95° C., 30 sec at 60° C. Gene expression levels were normalized to Beta Actin. Primers used for qPCR of RIDD targets were as follows: Beta Actin Fwd: 5′-[…]-3′ (SEQ ID NO:4), Beta Actin Rev: 5′-[…]-3′ (SEQ ID NO:5), Insulin 1 Fwd: 5′-GTCCTCTGGGAGCCCAAG-3′ (SEQ ID NO:6), Insulin 1 Rev: 5′-ACAGAGCCTCCACCAGG-3′ (SEQ ID NO:7), Insulin 2 Fwd: 5′-ATCCTCTGGGAGCCCCGC-3′ (SEQ ID NO:8), Insulin 2 Rev: 5′-AGAGAGCTTCCACCAAG-3′ (SEQ ID NO:9), Blos1 Fwd: 5′-[…]-3′ (SEQ ID NO:10), and Blos1 Rev: 5′-[…]-3′ (SEQ ID NO:11).
RNA was extracted using Trizol (Invitrogen), DNaseI treated, and cDNA products encompassing the intron amplified by QuantiTect Reverse Transcription Kit (Qiagen). sense Primer rXBP Forward (5′-[…]-3′ (SEQ ID NO:12)) and antisense primer rXBP Reverse (5′-[…]-3′ (SEQ ID NO:13)) were used. PCR fragments were digested by PstI, resolved on 3% agarose gels, stained with EtBr, and quantified by densitometry.
XBP1 splicing for FIGS. 33A-33F: RNA was extracted using Trizol (Invitrogen), cDNA products encompassing the intron amplified by QuantiTect Reverse Transcription Kit (Qiagen). Sense Primer rXBP splicing Forward (5′-[…]-3′ (SEQ ID NO:12)) and antisense primer rXBP splicing Reverse (5′-[…]-3′ (SEQ ID NO:13)) were used. PCR fragments were digested by PstI, resolved on 3% agarose gels, stained with EtBr, and quantified by densitometry.

IRE1α* = biological target: T1, IRE1α* (Homo sapiens, UniProt O75460); assay: In vitro kinase activity assay (IRE1α kinase inhibition); format: biochemical; settings: IRE1α kinase inhibition; read-out: IC50 IRE1a
T1 construct: human IRE1α (residues 547-977, IRE1α*) was expressed in SF9 insect cells; His6 (N); made in house; host or cells: Sf9 insect cells (Bac-to-Bac baculovirus)
T1 sequence (O75460 547-977): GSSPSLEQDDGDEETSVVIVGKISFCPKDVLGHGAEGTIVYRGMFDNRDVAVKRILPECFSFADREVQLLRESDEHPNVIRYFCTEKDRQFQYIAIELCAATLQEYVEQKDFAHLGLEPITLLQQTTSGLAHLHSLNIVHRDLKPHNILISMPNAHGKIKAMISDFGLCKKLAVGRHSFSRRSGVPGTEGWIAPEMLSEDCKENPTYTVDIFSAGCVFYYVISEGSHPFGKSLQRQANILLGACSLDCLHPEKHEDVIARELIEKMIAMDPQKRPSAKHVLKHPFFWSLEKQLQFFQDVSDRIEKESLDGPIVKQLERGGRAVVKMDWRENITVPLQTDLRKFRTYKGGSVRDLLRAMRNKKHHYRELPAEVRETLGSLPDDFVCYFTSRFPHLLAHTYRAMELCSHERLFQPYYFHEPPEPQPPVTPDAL
Procedure: A construct containing the cytosolic kinase and RNase domains of human IRE1α (residues 547-977, IRE1α*) was expressed in SF9 insect cells by using the Bac-to-Bac baculovirus expression system (Invitrogen) with a His6 tag at the N-terminus and purified with a nickel-nitriloacetic acid (Qiagen) column. To generate dP-IRE1α*, we removed basal phosphorylation sites by incubating IRE1α* with λ-PPase (New England Biolabs) at a molar ratio of 5:1 (IRE1α*: λ-PPase) in 50 mM HEPES pH 7.5, 100 mM NaCl, 1 mM MnCl2, 2 mM dithiothreitol (DTT) and 0.01% Brij 35 detergent (v/v) overnight at 4° C. Dephosphorylation was verified through western blotting using a universal phospho-protein detection agent (biotin-pIMAGO (Tymora Analytical Operations, Cat. No.: FL800) and imaged using a streptavidin-linked fluorophore.
In Vitro Kinase Activity Assay
Inhibitors (initial concentration of 10 or 60 μM, three-fold serial dilutions) were incubated with IRE1α* in cleavage buffer (20 mM HEPES, 0.05% Triton X-100 (v/v), 50 mM KCl, 1 mM MgCl2, 1 mM DTT, pH 7.5) for 30 min, followed by incubation with 10 μCi [γ^32P] ATP (3,000 Ci mmol^−1, PerkinElmer) at 23° C. for 3 hours. Samples were then spotted onto glass fiber paper (Easytab-C Glass Fiber Filter Paper, Perkin Elmer) and washed in twice with 0.5% phosphoric acid and autoradiographed using a GE Typhoon FLA 9000 Imager. Blots were quantitated using ImageQuant software. The percent inhibition was quantified by setting the background (no kinase well) as 0 and standardizing to IRE1α* without compound treatment (IRE1α*+DMSO). Dose-response curves were fit using “one-site fit log IC50” parameter using GraphPad Prism analysis software.
Compound Characterization (IC50 IRE1α Kinase Inhibition)

[1] = tested on: RIDD (IRE1α-dependent mRNA decay); assay: Real-time PCR of RIDD mRNA targets in INS-1 cells overexpressing IRE1α (Dox); format: cell-based, rat; settings: 3, 10 μM for 1 hour, then Dox (5 ng/mL) for 24 hours
Procedure: as §1, §2
Real-Time PCR (Q-PCR) used SYBR green and Step OnePlus Real-Time PCR System (Applied Biosystems). Thermal cycles were: 5 min at 95° C., 40 cycles of 15 s at 95° C., 30 s at 60° C. Gene expression levels were normalized to GAPDH. Q-PCR Sense/antisense primers used: Rat GAPDH, 5′-[…]-3′ (SEQ ID NO:14) and 5′-[…]-3′ (SEQ ID NO:15); Rat Ins1, 5′-GTCCTCTGGGAGCCCAAG-3′ (SEQ ID NO:6) and 5′-ACAGAGCCTCCACCAGG-3′ (SEQ ID NO:7); Rat Pdia4, 5′-CGTCTCGCCCTGATTCGT-3′ (SEQ ID NO:16) and 5′-[…]-3′ (SEQ ID NO:17); Rat Blos1, 5′-[…]-3′ (SEQ ID NO:18) and 5′-TGTCCAGTTCGATGCTCCG-3′ (SEQ ID NO:19).
Real-time PCR for FIGS. 34A-34F: Real-Time PCR (Q-PCR) used SYBR green and Step OnePlus Real-Time PCR System (Applied Biosystems). Thermal cycles were: 5 min at 95° C., 40 cycles of 15 s at 95° C., 30 s at 60° C. Gene expression levels were normalized to GAPDH. Q-PCR Sense/antisense primers used: Rat GAPDH, 5′-[…]-3′ (SEQ ID NO:20) and 5′-[…]-3′ (SEQ ID NO:21); Rat Ins1, 5′-GTCCTCTGGGAGCCCAAG-3′ (SEQ ID NO:6) and 5′-ACAGAGCCTCCACCAGG-3′ (SEQ ID NO:7); Rat Ins2, 5′-ATCCTCTGGGAGCCCCGC-3′ (SEQ ID NO:8) and 5′-AGAGAGCTTCCACCAAG-3′ (SEQ ID NO:9); Rat Pdia4, 5′-[…]-3′(SEQ ID NO:22) and 5′-[…]-3′ (SEQ ID NO:23); Rat Blos1, 5′-[…]-3′ (SEQ ID NO:18) and 5′-TGTCCAGTTCGATGCTCCG-3′ (SEQ ID NO:19).

SMILES	% spliced XBP1 amplicons (XBP1 mRNA splicing)	IC50 (IRE1α*) [nM]	RIDD mRNA targets (Ins1, Ins2, Pdia4) [1]
Cc1cc(NS(=O)(=O)C2CC2)c2ccccc2c1Oc1ncccc1-c1ccnc(N[C@@H]2CNC[C@@H](F)C2)n1 [LBC-412, N-(4-((3-(2-(((3S,5S)-5-fluoropiperidin-3-yl)amino)pyrimidin-4-yl)pyridin-2-yl)oxy)-3-methylnaphthalen-1-yl) cyclopropane sulfonamide]	do not suppress XBP mRNA splicing	13	block RIDD
Cc1cc(NS(=O)(=O)C2(C)CC2)c2ccccc2c1Oc1ncccc1-c1ccnc(N[C@@H]2CNC[C@@H](F)C2)n1 [LBC-413, N-(4-((3-(2-(((3S,5S)-5-fluoropiperidin-3-yl)amino)pyrimidin-4-yl)pyridin-2-yl)oxy)-3-methylnaphthalen-1-yl)-1-methylcyclopropane-1-sulfonamide]	do not suppress XBP mRNA splicing	32	block RIDD
